Laboratory results: PubChem BioAssay (NCI)
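These data come from cells grown in 96-well plates and exposed to compound for 48 hours at five concentrations. TGI marks complete inhibition of growth.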

How the values were obtained:
Assay in all cases: NCI-60 cell line screen, 48 h
[1] = system: 786-0 renal
[2] = system: A498 renal
[3] = system: A549 NSCLC
[4] = system: ACHN renal
[5] = system: CAKI-1 renal
[6] = system: CCRF-CEM leukemia
[7] = system: COLO 205 colon
[8] = system: DLD-1 colon
[9] = system: DMS 114 small cell lung
[10] = system: DMS 273 small cell lung
[11] = system: EKVX NSCLC
[12] = system: HCC-2998 colon
[13] = system: HCT-116 colon
[14] = system: HCT-15 colon
[15] = system: HL-60(TB) leukemia
[16] = system: HOP-18 NSCLC
[17] = system: HOP-62 NSCLC
[18] = system: HOP-92 NSCLC
[19] = system: HT29 colon
[20] = system: IGROV1 ovarian
[21] = system: K-562 leukemia
[22] = system: KM12 colon
[23] = system: KM20L2 colon
[24] = system: LOX IMVI melanoma
[25] = system: LXFL 529 NSCLC
[26] = system: M14 melanoma
[27] = system: M19-MEL melanoma
[28] = system: MALME-3M melanoma
[29] = system: MOLT-4 leukemia
[30] = system: NCI-H226 lung
[31] = system: NCI-H23 lung
[32] = system: NCI-H460 lung
[33] = system: NCI-H522 lung
[34] = system: OVCAR-3 ovarian
[35] = system: OVCAR-4 ovarian
[36] = system: OVCAR-5 ovarian
[37] = system: OVCAR-8 ovarian
[38] = system: RXF 393 renal
[39] = system: RXF-631 renal
[40] = system: SF-268 CNS
[41] = system: SF-295 CNS
[42] = system: SF-539 CNS
[43] = system: SK-MEL-28 melanoma
[44] = system: SK-MEL-5 melanoma
[45] = system: SN12C renal
[46] = system: SNB-19 CNS
[47] = system: SNB-75 CNS
[48] = system: SNB-78 CNS
[49] = system: SR leukemia
[50] = system: SW-620 colon
[51] = system: TK-10 renal
[52] = system: U251 CNS
[53] = system: UACC-257 melanoma
[54] = system: UACC-62 melanoma
[55] = system: UO-31 renal
[56] = system: XF 498 CNS

Measured: TGI

C=CSCCC(N)C(=O)O (stereo unspecified)
> 100 µM: all assays above
